Results published in patent publication US10959938B2, “Combination of (3S,3S′) 4,4′-disulfanediylbis(3-aminobutane 1-sulfonic acid) and a second antihypertensive agent” (QUANTUM GENOMICS, priority 2011, dated 2021).

Test system: spontaneously hypertensive rats (SHR)
Test: Mean arterial blood pressure (MABP) and heart rate recording in conscious, unrestrained SHR after acute oral administration
Format: in vivo, rat
Conditions: 1 hour (FIG. 2)
Method: RB150, the ACEI, enalapril (supplied from Merck Sharp and Dohme research Lab), and the ARB, valsartan (Sigma-Aldrich), were dissolved in sterile saline and adjusted to pH 7.4 for in vivo administration.
Male spontaneously hypertensive rats (SHR), weighing 250 to 350 g, were obtained from Charles River Laboratories (L'Arbresle, France) and animals were kept under artificial light (12-hours light/12-hours dark cycle) with a normal standard diet and water given ad libitum. The experiments were conducted according to the National Institutes of Health Guide for the Care and Use of Laboratory Animals.
Twelve weeks male SHR were anesthetized with pentobarbital sodium (60 mg/kg, i.p, Centravet). Catheters were implanted in the femoral artery. The femoral arterial catheter was brought under the skin and emerged at the nape of the neck. After surgery, each rat was given an intraperitoneal injection of 0.1 mL of penicillin-streptomycin (50,000 units/mL; Sigma) and allowed to recover for at least 24 hours before the experiment. […] Each experiment was monitored by using a COBE CDX III pressure transducer (Phymep, Paris, France) connected to the MacLab system (Phymep) consisting of a MacLab hardware unit and chart software running on a Macintosh computer. […]

| Compound | BP decrease 1 hour after drug administration (RB150 alone 150 mg/kg po) | BP decrease 1 hour after drug administration (enalapril alone 3 mg/kg po) |
| --- | --- | --- |
| N[C@@H](CCS(=O)(=O)O)CSSC[C@@H](N)CCS(=O)(=O)O [RB150, (3S,3S′) 4,4′-disulfanediylbis(3-aminobutane 1-sulfonic acid)] | did not induce any significant BP decrease |  |
| CCOC(=O)[C@H](CCc1ccccc1)N[C@@H](C)C(=O)N1CCC[C@H]1C(=O)O [enalapril] |  | did not induce any significant BP decrease |
